Assay results from article PMC3711119 (European journal of medicinal chemistry, 2013).

System: human neutrophils
Assay: Ca2+ mobilization
Format: cell-based
Details: Neutrophil, read-out: Ca2+ flux Efficacy

Compound | Emax [%]
COc1cccc(Cc2ccnn(CC(=O)Nc3ccc(Br)cc3)c2=O)c1 [Compound 6a, N-(4-Bromophenyl)-2-[5-(3-methoxybenzyl)-6-oxopyridazin-1(6H)-yl]acetamide] | 100
Cc1cc(N)c(=O)n(CC(=O)Nc2ccc(Br)cc2)n1 [Compound 27, N-(4-Bromophenyl)-2-[5-amino-3-methyl-6-oxopyridazin-1(6H)-yl]acetamide] | 100
